Experimental data reported in PubChem BioAssay AID330 (DTP/NCI, 2004).
Several values for one entry are separate records, joined by “and”; a condition that tells them apart may be missing. Equal entries are not always repeated. Toxic doses and inconclusive results are not listed. The calls were made as follows: active = survival T/C of 150% or more; inactive = T/C below 125% in these data.

System: P388 leukemia ip, CD2F1 mice, survival T/C
Assay: NCI In Vivo Anticancer Drug Screen. Data for tumor model P388 Leukemia (intraperitoneal) in CD2F1 (CDF1) mice
Settings: endpoint: median survival time, higher = longer survival
Method in brief: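 Mice carrying the transplanted tumor received test compound or vehicle. Survival was recorded in each group, and the value is the treated-group measurement divided by that of the vehicle-treated control group.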

[1] = dose: 50.0 mg/kg/injection, schedule: Q01DX009 (ip), vehicle: Klucel (hydroxypropylcellulose) (HPC)
[2] = dose: 100.0 mg/kg/injection, schedule: Q01DX009 (ip), vehicle: Klucel (hydroxypropylcellulose) (HPC)
[3] = dose: 200.0 mg/kg/injection, schedule: Q01DX009 (ip), vehicle: Klucel (hydroxypropylcellulose) (HPC)
[4] = dose: 60.0 mg/kg/injection, schedule: Q01DX005 (ip), vehicle: saline with Tween-80
[5] = dose: 120.0 mg/kg/injection, schedule: Q01DX005 (ip), vehicle: saline with Tween-80
[6] = dose: 50.0 mg/kg/injection, schedule: Q01DX009 (ip), vehicle: saline with Tween-80
[7] = dose: 100.0 mg/kg/injection, schedule: Q01DX009 (ip), vehicle: saline with Tween-80
[8] = dose: 200.0 mg/kg/injection, schedule: Q01DX009 (ip), vehicle: saline with Tween-80
[9] = dose: 12.5 mg/kg/injection, schedule: Q01DX009 (ip), vehicle: saline with Tween-80
[10] = dose: 25.0 mg/kg/injection, schedule: Q01DX009 (ip), vehicle: saline with Tween-80

Measured: T/C

CN(C)C(=S)S
inactive: [1] 102 % of control | [2] 100 % of control | [3] 105 % of control | dose: 400.0 mg/kg/injection, schedule: Q01DX009 (ip), vehicle: Klucel (hydroxypropylcellulose) (HPC) 114 % of control

CC1(C)CN(Cc2ccccc2)C1(C)C#N (centres undefined)
inactive: [4] 100 % of control | [5] 105 % of control

CC(=O)C1CCN(CN2CCC(C(C)=O)CC2)CC1
inactive: dose: 25.0 mg/kg/injection, schedule: Q01DX005 (ip), vehicle: saline 101 % of control | dose: 50.0 mg/kg/injection, schedule: Q01DX005 (ip), vehicle: saline 110 % of control | dose: 100.0 mg/kg/injection, schedule: Q01DX005 (ip), vehicle: saline 97 % of control

O=C1C2=C(Nc3cc([N+](=O)[O-])ccc3N2)OC1c1ccccn1 (centres undefined)
inactive: dose: 30.0 mg/kg/injection, schedule: Q01DX005 (ip), vehicle: Klucel (hydroxypropylcellulose) (HPC) 119 % of control | dose: 60.0 mg/kg/injection, schedule: Q01DX005 (ip), vehicle: Klucel (hydroxypropylcellulose) (HPC) 122 % of control | dose: 120.0 mg/kg/injection, schedule: Q01DX005 (ip), vehicle: Klucel (hydroxypropylcellulose) (HPC) 121 % of control

Nc1nc(SN=Nc2ccc(S(N)(=O)=O)cc2)c2[nH]cnc2n1
inactive: dose: 7.5 mg/kg/injection, schedule: Q01DX009 (ip), vehicle: saline 118 % of control | dose: 15.0 mg/kg/injection, schedule: Q01DX009 (ip), vehicle: saline 100 % of control

CC(C)(C)N=C(CCC(C#N)(C#N)CCC(=NC(C)(C)C)Nc1ccccc1C#N)Nc1ccccc1C#N
inactive: [6] 95 % of control | [7] 92 % of control | [8] 101 % of control

C/C=C(/C)C(=O)O[C@@H]1c2c(C)coc2C(=O)[C@@]2(OC(C)=O)CCC[C@@](C)(O)[C@@]12C
inactive: dose: 3.25 mg/kg/injection, schedule: Q01DX005 (ip), vehicle: saline + alcohol 110 % of control | dose: 6.5 mg/kg/injection, schedule: Q01DX005 (ip), vehicle: saline + alcohol 96 % of control | dose: 13.0 mg/kg/injection, schedule: Q01DX005 (ip), vehicle: saline + alcohol 91 % of control | dose: 26.0 mg/kg/injection, schedule: Q01DX005 (ip), vehicle: saline + alcohol 93 % of control

N#CCSCC#N
inactive: [4] 100 % of control | [5] 100 % of control | dose: 240.0 mg/kg/injection, schedule: Q01DX005 (ip), vehicle: saline with Tween-80 104 % of control

Clc1ccc(N=c2ccn3ccccc3c2)cc1Cl
inactive: [9] 94 % of control | [10] 94 % of control | [6] 97 % of control

COC(C)(C)c1ccc(C)c(O)c1
inactive: dose: 4.38 mg/kg/injection, schedule: Q01DX005 (ip), vehicle: Klucel (hydroxypropylcellulose) (HPC) 96 % of control | dose: 8.75 mg/kg/injection, schedule: Q01DX005 (ip), vehicle: Klucel (hydroxypropylcellulose) (HPC) 95 % of control | dose: 17.5 mg/kg/injection, schedule: Q01DX005 (ip), vehicle: Klucel (hydroxypropylcellulose) (HPC) 92 % of control | dose: 35.0 mg/kg/injection, schedule: Q01DX005 (ip), vehicle: Klucel (hydroxypropylcellulose) (HPC) 91 % of control

CCCNC(=O)CCC(NS(=O)(=O)c1ccc(NC(C)=O)cc1)C(=O)O (centres undefined)
inactive: dose: 50.0 mg/kg/injection, schedule: Q01DX005 (ip), vehicle: Klucel (hydroxypropylcellulose) (HPC) 100 % of control | dose: 100.0 mg/kg/injection, schedule: Q01DX005 (ip), vehicle: Klucel (hydroxypropylcellulose) (HPC) 98 % of control | dose: 200.0 mg/kg/injection, schedule: Q01DX005 (ip), vehicle: Klucel (hydroxypropylcellulose) (HPC) 100 % of control

CC1=NN=C(C)C1=Cc1ccccc1[N+](=O)[O-]
inactive: [1] 99 % of control | [2] 95 % of control | [3] 101 % of control

CC12CC3CN(C(=O)c4ccccc4)CCC3CC1=Nc1ccccc12 (centres undefined)
inactive: dose: 25.0 mg/kg/injection, schedule: Q04DX002 (ip), vehicle: saline with Tween-80 100 % of control | dose: 50.0 mg/kg/injection, schedule: Q04DX002 (ip), vehicle: saline with Tween-80 103 % of control | dose: 100.0 mg/kg/injection, schedule: Q04DX002 (ip), vehicle: saline with Tween-80 94 % of control | dose: 200.0 mg/kg/injection, schedule: Q04DX002 (ip), vehicle: saline with Tween-80 86 % of control

O=C1OP2(c3ccccc3)(OC(=O)c3ccccc32)c2ccccc21
inactive: [9] 98 % of control and 94 % of control | [10] 99 % of control and 92 % of control | [6] 90 % of control and 95 % of control | [7] 95 % of control | [8] 88 % of control

FC(F)(F)c1ccc2nc3c(nc2c1)-c1ccc(Br)c2cccc-3c12
inactive: dose: 50.0 mg/kg/injection, schedule: Q01DX009 (ip), vehicle: saline 115 % of control | dose: 100.0 mg/kg/injection, schedule: Q01DX009 (ip), vehicle: saline 101 % of control | dose: 200.0 mg/kg/injection, schedule: Q01DX009 (ip), vehicle: saline 99 % of control
